Assay results published in PubChem BioAssay (NCI).
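Each compound was tested at five concentrations against cells in 96-well plates for 48 hours. GI50 is the concentration that inhibits growth by half. TGI marks complete inhibition of growth.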

Tests used:
Assay in all cases: NCI tumour cell line growth inhibition, 48 h
BT-549 breast = test system: BT-549 breast
K-562 leukemia = test system: K-562 leukemia
LOX IMVI melanoma = test system: LOX IMVI melanoma
NCI-H23 lung = test system: NCI-H23 lung
NCI-H522 lung = test system: NCI-H522 lung
OVCAR-5 ovarian = test system: OVCAR-5 ovarian
RXF 393 renal = test system: RXF 393 renal
SF-268 CNS = test system: SF-268 CNS
U251 CNS = test system: U251 CNS
UACC-62 melanoma = test system: UACC-62 melanoma

| Structure (SMILES) | GI50 (BT-549 breast) [µM] | TGI (BT-549 breast) [µM] | GI50 (K-562 leukemia) [µM] | TGI (K-562 leukemia) [µM] | GI50 (LOX IMVI melanoma) [µM] | TGI (LOX IMVI melanoma) [µM] | GI50 (NCI-H23 lung) [µM] | TGI (NCI-H23 lung) [µM] | GI50 (NCI-H522 lung) [µM] | TGI (NCI-H522 lung) [µM] | GI50 (OVCAR-5 ovarian) [µM] | TGI (OVCAR-5 ovarian) [µM] | GI50 (RXF 393 renal) [µM] | TGI (RXF 393 renal) [µM] | GI50 (SF-268 CNS) [µM] | TGI (SF-268 CNS) [µM] | GI50 (U251 CNS) [µM] | TGI (U251 CNS) [µM] | GI50 (UACC-62 melanoma) [µM] | TGI (UACC-62 melanoma) [µM] |
| --- | --- | --- | --- | --- | --- | --- | --- | --- | --- | --- | --- | --- | --- | --- | --- | --- | --- | --- | --- | --- |
| C[C@@H]1CN(Cc2ccc(/C=C/c3n[nH]c4ccc5nc(-c6cn[nH]c6C(F)(F)F)c6c(c5c34)CCCC6)cc2)C[C@H](C)O1 | 3.09 | 14.8 | 2.81 | 24.7 | 2.33 | 10.8 | 5.71 | 21.7 | 2.02 | 16.2 | 4.06 | 16.2 | 1.85 | 5.79 | 4.21 | 19.1 | 5.45 | 19.5 | 5.73 | 19.3 |
| Clc1ccccc1-c1nc2ccccc2[nH]1 | > 100 | > 100 | 80.2 | > 100 | > 100 | > 100 | > 100 | > 100 | > 100 | > 100 | > 100 | > 100 | > 100 | > 100 | > 100 | > 100 | > 100 | > 100 | > 100 | > 100 |
| NC1=CC(=O)C(=O)c2cccnc21 | 4.73 | 18.7 | 3.03 | 10.6 | 1.7 | 4.38 | 2.06 | 7.84 | 7.32 | 22.6 | 17.8 | 34.3 | 14.2 | 27.2 | 4.81 | 18 | 3.92 | 15.4 | 1.83 | 3.79 |
| Cc1cc(-c2ccccc2)c(C)n1Cc1ccc(Cl)cc1 | 5.5 | > 100 | 0.84 | > 100 | 6.95 | > 100 | 8.24 | > 100 | 2.57 | 9.26 | 12.3 | > 100 | 2.33 | 16.6 | 13.6 | > 100 | 4.65 | > 100 | 3.44 | > 100 |
| N=C(N)n1[nH]c2c(c1=O)CCC2 |  | > 100 |  | > 100 |  | > 100 |  | > 100 |  | > 100 |  | > 100 |  | > 100 |  | > 100 |  | > 100 |  | > 100 |
| COC(=O)c1[nH]nc(-c2ccccc2)c1N1CCCCC1 | 43.9 | > 100 | 57.2 | > 100 | 42 | > 100 | 26.3 | 85.6 | 36.8 | > 100 | 51.7 | > 100 | 20.7 | 54.5 | 20.8 | 53.5 | 26.6 | 78.8 | 17.3 | 49.2 |
| COc1ccc(/C=C/c2nc(N3CCOCC3)c3cc(F)c(F)cc3n2)cc1OC | 2.83 | 19.8 |  |  | 5.07 | > 100 | 6.05 | > 100 | 6.86 | > 100 | 6.54 | > 100 | 5.06 | > 100 | 9.85 | > 100 | 5.9 | > 100 | 3.55 | > 100 |
| COc1cc(C(=O)/C=C/c2c(-c3ccc(F)cc3)nc3sccn23)cc(OC)c1OC | 0.342 | 12.5 | 1.85 | 6.64 | 1.8 | 5.15 | 2.43 | 10.6 | 4.2 | > 26.2 | 1.85 | 4.79 | 0.945 | 4.23 | 2.37 | 7.36 | 2.41 | 9.23 | 2.28 | 13.9 |
| CC12C=CC(C)(O1)C1C2c2ccccc2S1(=O)=O (stereo not drawn) | 21.6 | 81.6 | 69.7 | > 100 | 46.6 | > 100 | 46.6 | > 100 | 33.6 | > 100 | > 100 | > 100 | 0.637 | 36.9 | 68 | > 100 | > 100 | > 100 | > 100 | > 100 |
| COc1ccc(-c2nnc3n(C)c(=O)c4ccccc4n23)cc1O | 2.91 | > 100 | 0.135 | > 100 | 1.25 | > 100 | 3.01 | > 100 | 0.0827 | 1.98 | 15.8 | > 100 | 0.758 | 6.21 | 5.29 | > 100 | 0.263 | 20.8 | 0.441 | 27.1 |
| COc1ccc(C(=O)Nc2ncc(Cc3ccc(F)cc3)s2)cc1 | 0.642 | > 100 | 0.0377 | > 100 | 0.0673 | > 100 | 0.368 | > 100 | 0.0874 | > 100 | 0.406 | 99.6 | 0.0666 | 3.18 | 0.481 | > 100 | 0.0686 | > 89.1 | 0.0469 | > 94.4 |
| Cn1c2ccccc2c2cc(-c3ccccc3)c3c(c21)C(=O)C=CC3=O |  | 26.5 |  | > 70.6 |  | 34.7 |  | 42.6 |  | 34.5 |  | 35.2 |  | 31.1 |  | 77.4 |  | 39.4 |  | 44.7 |
| O=C1C=C(N2CC2)c2ccccc2C1=O | 1.4 | 2.73 | 2.6 | 5.66 | 2.11 | 13 | 1.84 | 7.17 | 1.42 | 2.93 | 2.03 | 3.68 | 1.64 | 3.08 | 1.79 | 3.71 | 1.55 | 3.01 | 1.79 | 3.25 |
| Cc1cc(N(CCCNc2ccnc3cc(Cl)ccc23)Cc2cccs2)nc(Cl)n1 | 3.69 | 15.7 | 0.743 | 12.2 | 2.79 | 11.7 | 1.3 | 16.7 | 2.9 | 18.7 | 5.9 | 24.3 | 4.46 | 21.7 | 10.5 | 29.7 | 6.75 | 22.2 | 5.15 | 21 |
| O=C1C2C(C(=O)[N]1[Hg][c]1ccccc1)C1(Cl)C(Cl)=C(Cl)C2(Cl)C1(Cl)Cl (stereo not drawn) | 1.2 | 2.49 | 1.36 | 11.4 | 1.02 | 2.39 | 1.49 | 3.32 | 0.203 | 0.531 | 2.82 | 5.29 | 0.423 | 1.59 | 1.64 | 3.71 | 1.21 | 2.49 | 1.37 | 2.72 |
| Cc1sc2nc(-c3ccccn3)c(/C=N/N=C(N)N)n2c1C | 1.92 | 4.39 | > 51.5 | > 100 | 4.01 | 8.26 | 6.37 | 15.3 | 5.18 | 13.3 | 7.67 | 16.2 | 5.56 | 16.1 | 8.15 | 29.8 | 9.3 | 21 | 4.19 | 10.4 |
| O=C1OCC2=C1C(c1cccc(F)c1)c1cc3c(cc1N2CCO)OCCO3 (stereo not drawn) | 0.417 | 11.4 | 0.122 | > 50 | 0.265 | > 50 | 0.35 | > 50 | 0.0418 | 2.58 | 0.541 | > 50 | 0.141 | > 50 | 0.381 | > 50 | 0.221 | > 50 | 0.112 | > 50 |
| COc1cc2c(cc1OCCCCC(=O)Nc1ccc(-c3nc4ccccc4s3)cc1)N=C[C@@H]1CCCN1C2=O | 1.13 | 2.36 | 1.75 | 11 | 1.57 | 2.91 |  |  | 0.972 | 2.65 | 3.56 | 11.9 | 1.61 | 3.05 | 2.04 | 5.66 | 1.9 | 6.63 | 1.73 | 3.39 |
| O=C1C[C@@H](c2ccccc2)NCCCCN(O)CCCN1 |  | > 100 |  |  |  | > 100 |  | > 100 |  | > 100 |  | > 100 |  | > 100 |  | > 100 |  | > 100 |  | > 100 |
| CC(=O)OC1CCC2(C)C(CCC3C2CCC2(C)C(C4=CC(=O)OC4)CCC32)C1 (stereo not drawn) | 4.19 | 25.4 | 2.02 | 5.27 | 0.42 | > 100 | 3.46 | 14.5 | 1.53 | 3.99 | 11.5 | 55.8 | 8.73 | 28.7 | 2.38 | 10.1 |  |  | 1.01 | 2.74 |
